Source: patent publication US20250249144A1, “PEPTIDE AMPHIPHILE SUPRAMOLECULAR POLYMERS FOR SPRAY DELIVERY AND TISSUE REGENERATION APPLICATIONS” (The University of Southern Mississippi, priority 2024, published 2025)
Non-standard residues stand in square brackets, D forms with d. Residues, ends and D or L forms follow the SMILES beside them. ξ: configuration not given here. *: point of attachment. Palmitoyl = CCCCCCCCCCCCCCCC(=O)*; aThr = C[C@H](O)[C@H](N)C(=O)O; ξV = CC(C)C(N)C(=O)O

How the values were obtained:
[1] = test system: full thickness injury, atopic dermatitis; conditions: rodent models of full thickness injury and atopic dermatitis; cited from earlier work
[2] = test system: ERK receptor; conditions: cited from earlier work
[3] = test system: full thickness burn; test: burn injury murine model, wound closure; format: in vivo; conditions: mouse, 3 days and 7 days post treatment, one-way ANOVA, p<0.05
Description: The benefits of, and potential for, regeneration of the biocompatible and bioactive PA nanofiber scaffold was assessed in a mouse burn injury model. […] (See FIGS. 5 and 6). A 1×1 cm diameter steel billet was heated to 100° C. in a dry heat bath. Mice were anesthetized using isoflurane throughout the procedures. After successful anesthesia had been achieved, mice were clipped circumferentially on their trunks/dorsum and prepped with betadine. Burn injury was accomplished by applying the previously heated billet to the dorsum of each animal for 10 seconds. A total of 6 applications of the rod (3 on each side of the midline back) produced an approx. 20% total body surface area (TBSA) full thickness burn. Mice were further wrapped with a self-adherent wrap to protect the wound. Mice were resuscitated using 1.0 mL i.p. saline (which included 0.03 mL Buprenex SR and 0.06 mL Meloxicam SR) and placed onto warming pads until full recovery from anesthesia was determined. 8 hours post-burn, they received a 2nd bolus of 1 mL i.p. fluid. […] Healing was assessed following a single application. […] Quantification of wound healing was accomplished by digital image planimetry with ImageJ at 3 days, and 7 days post treatment, with representative images of wound healing at day 15 post treatment also being provided.

[4] = test system: dermal wound; conditions: rat full thickness excision model; cited from earlier work
[5] = test system: diabetic wound; conditions: diabetic wound model; cited from earlier work
[6] = biological target: T1, receptor of EPO (Homo sapiens, UniProt P19235); conditions: cyclized through the cysteine residues; cited from earlier work
T1 sequence (P19235 25-508): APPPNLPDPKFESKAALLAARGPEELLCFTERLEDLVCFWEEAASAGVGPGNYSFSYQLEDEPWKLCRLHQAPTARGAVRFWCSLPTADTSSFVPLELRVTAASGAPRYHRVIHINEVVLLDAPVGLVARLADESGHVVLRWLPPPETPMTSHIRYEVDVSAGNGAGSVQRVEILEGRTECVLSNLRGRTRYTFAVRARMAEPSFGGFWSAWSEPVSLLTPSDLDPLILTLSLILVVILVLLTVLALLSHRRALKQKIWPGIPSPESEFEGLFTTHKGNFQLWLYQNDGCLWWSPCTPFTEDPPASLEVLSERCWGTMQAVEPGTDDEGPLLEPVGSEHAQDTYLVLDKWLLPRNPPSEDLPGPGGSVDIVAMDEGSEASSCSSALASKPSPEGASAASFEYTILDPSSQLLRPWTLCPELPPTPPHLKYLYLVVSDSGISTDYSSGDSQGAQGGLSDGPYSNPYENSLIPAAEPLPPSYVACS

[7] = test system: erythropoiesis; conditions: mice; cited from earlier work

Molecule: C[C@H](O)[C@H](NC(=O)[C@@H](CCCNC(=N)N)NC(=O)CNC(=O)[C@@H](CCC(=O)O)NC(=O)[C@@H](N)CCCNC(=N)N)C(=O)O [REGRT, REGRT (SEQ ID NO.2)] (H-R[dE]G[dR][aThr]-OH)
- wound healing [1]: promotion of wound healing
- phosphorylation of the ERK receptor [2]: effective phosphorylation of the ERK receptor

Molecule: CCCCCCCCCCCCCCCC(=O)NC(C(=O)N[C@H](C(=O)NCC(=O)N[C@@H](C)C(=O)NCC(=O)N[C@@H](C)C(=O)N[C@H](CCC(=O)O)C(=O)N[C@@H](CCC(=O)O)C(=O)N[C@H](CCC(=O)O)C(N)=O)C(C)C)C(C)C (stereo partly shown) [diluent PA] (Palmitoyl-[ξV]VGAGA[dE]E[dE]-NH2)
- wound healing by digital image planimetry, significance vs control [3]: significant at 7 days

Molecule: CC(C)C[C@@H](NC(=O)CNC(=O)[C@@H](Cc1ccc(O)cc1)NC(=O)[C@@H](NC(=O)[C@H](NC(=O)[C@@H](N)CO)C(C)C)C(C)C)C(=O)N[C@@H](CCCNC(=N)N)C(=O)O [SVVYGLR, SVVYGLR (SEQ ID NO.: 3)]
- dermal wound healing [4]: effective in promoting dermal wound healing

Molecule: N=C(N)NCCC[C@H](NC(=O)[C@@H](Cc1cnc[nH]1)NC(=O)[C@@H](N)CCC(N)=O)C(=O)N[C@H](CCC(=O)O)C(=O)N[C@@H](CC(=O)O)C(=O)NCC(=O)N[C@@H](CO)C(=O)O [QHREDGS, QHREDGS (SEQ ID NO.4)]
- wound closure [5]: significantly accelerate wound closure

Molecule: GGTYSCHFGPLTWVCKPQGG (SEQ ID NO.: 1) [EMP1]
- activation of the EPO receptor [6]: capable of activating the receptor of EPO
- erythropoiesis [7]: stimulating erythropoiesis
